Measurements reported in patent US10689408B2, “Bisphosphonic acid compound” (FUJIYAKUHIN CO., LTD., priority 2016, dated 2020).

Tests used:
[1] = system: Vitamin D3-Induced Vascular Calcification Rat Model; test: Ectopic calcification inhibitory effect in vitamin D3-induced vascular calcification rat model (amount of aortic phosphorus); type: in vivo, Male Wistar/ST rats; settings: 336 h, oral, once a day for 2 weeks, aortic phosphorus relative to control (vehicle), read-out: Rate of inhibition (%) of ectopic calcification
Text: Test Example: Ectopic Calcification Inhibitory Effect in Vitamin D3-Induced Vascular Calcification Rat Model
Male Wistar/ST rats were grouped according to their body weights as an index (6 individuals per group). Cholecalciferol (Wako Pure Chemical Industries, Ltd.) was subcutaneously administered at repeated doses of 125,000 IU/kg to each rat for 3 days to induce vascular calcification. Each test substance was orally administered at repeated doses once a day for 2 weeks from the day of administration of cholecalciferol. The rats were fasted from approximately 6 hours before the administration of the test substance to approximately 2 hours thereafter. On the day following the final administration, total blood was collected from the descending aorta of each rat under isoflurane anesthesia, and then, the aorta from the aortic root to the posterior limb bifurcation was excised. The aorta was chopped, then homogenized after adding 5 mL of 1 N hydrochloric acid and left at room temperature for 1 hour. After centrifugation at 15,000 rpm at 4° C. for 15 minutes, the obtained supernatant was used as a measurement sample. The amount of phosphorus in the measurement sample was measured using Phospha C-Test Wako (Wako Pure Chemical Industries, Ltd.) and used as an index for calcification. An average value of the amounts of aortic phosphorus in each group was determined to calculate the rate of inhibition of calcification by the administration of the test substance relative to a control (vehicle administration) (Table 7).

[2] = system: carotid artery intima-media thicknesses; settings: type 2 diabetic patients; cited from earlier work
[3] = system: calcification in the aorta; settings: dialysis patients; cited from earlier work

SMILES | inhibition in vivo at 5 mg/kg [1] | other results
C[C@H]1CC[C@@H](CC(O)(P(=O)(O)O)P(=O)(O)O)C1 (relative stereo) [Example 16, Disodium {1-hydroxy-2-[(1R*,3S*)-3-methylcyclopentyl]ethane-1,1-diyl}bisphosphonate] | 75% | 
C[C@H]1CC[C@H](CC(O)(P(=O)(O)O)P(=O)(O)O)C1 (relative stereo) [Example 17, Disodium {1-hydroxy-2-[(1R*,3R*)-3-methylcyclopentyl]ethane-1,1-diyl}bisphosphonate] | 80% | 
O=P(O)(O)C(O)(C[C@@H]1CC[C@@H](F)C1)P(=O)(O)O (relative stereo) [Example 18, Disodium {2-[(1R*,3R*)-3-fluorocyclopentyl]-1-hydroxyethane-1,1-diyl}bisphosphonate] | 53% | 
O=P(O)(O)C(O)(C[C@@H]1CC[C@@H](Oc2ccccc2)C1)P(=O)(O)O (relative stereo) [Example 20, Disodium {1-hydroxy-2-[(1R*,3R*)-3-phenoxycyclopentyl]ethane-1,1-diyl}bisphosphonate] | 46% | 
CC(C1CCC1)C(O)(P(=O)(O)O)P(=O)(O)O (stereo not drawn) [Example 3, Disodium (2-cyclobutyl-1-hydroxypropane-1,1-diyl)bisphosphonate] |  | inhibition in vivo at 10 mg/kg [1]: 64%
CC1(CC(O)(P(=O)(O)O)P(=O)(O)O)CCC1 [Example 4, Disodium [1-hydroxy-2-(1-methylcyclobutyl)ethane-1,1-diyl]bisphosphonate] | 39% | 
O=P(O)(O)C(O)(CC1CCCC1)P(=O)(O)O [Example 6, Disodium (2-cyclopentyl-1-hydroxyethane-1,1-diyl)bisphosphonate] |  | inhibition in vivo at 30 mg/kg [1]: 95%
O=P(O)(O)C(O)(C=C1CCCC1)P(=O)(O)O [Example 7, Disodium (2-cyclopentylidene-1-hydroxyethane-1,1-diyl)bisphosphonate] | 51% | 
CC(C1CCCC1)C(O)(P(=O)(O)O)P(=O)(O)O (stereo not drawn) [Example 8, Disodium (2-cyclopentyl-1-hydroxypropane-1,1-diyl)bisphosphonate] |  | inhibition in vivo at 3 mg/kg [1]: 22%
CC1(CC(O)(P(=O)(O)O)P(=O)(O)O)CCCC1 [Example 11, Disodium [1-hydroxy-2-(1-methylcyclopentyl)ethane-1,1-diyl]bisphosphonate] | 57% | 
CCC1(CC(O)(P(=O)(O)O)P(=O)(O)O)CCCC1 [Example 12, Disodium [2-(1-ethylcyclopentyl)-1-hydroxyethane-1,1-diyl]bisphosphonate] | 28% | 
CCCC1(CC(O)(P(=O)(O)O)P(=O)(O)O)CCCC1 [Example 13, Disodium [1-hydroxy-2-(1-propylcyclopentyl)ethane-1,1-diyl]bisphosphonate] | 53% | 
CC1CCCC1CC(O)(P(=O)(O)O)P(=O)(O)O (stereo not drawn) [Example 14, Disodium [1-hydroxy-2-(2-methylcyclopentyl)ethane-1,1-diyl]bisphosphonate] | 29% | 
CC1CCC(CC(O)(P(=O)(O)O)P(=O)(O)O)C1 (stereo not drawn) [Example 15, Disodium [1-hydroxy-2-(3-methylcyclopentyl)ethane-1,1-diyl]bisphosphonate] | 87% | 
CC1(C)CCC(CC(O)(P(=O)(O)O)P(=O)(O)O)C1 (stereo not drawn) [Example 21, Disodium [2-(3,3-dimethylcyclopentyl)-1-hydroxyethane-1,1-diyl]bisphosphonate] | 68% | 
O=P(O)(O)C(O)(CC1CCC(F)(F)C1)P(=O)(O)O (stereo not drawn) [Example 23, Disodium [2-(3,3-difluorocyclopentyl)-1-hydroxyethane-1,1-diyl]bisphosphonate] | 43% | 
C[C@@H]1C[C@H](CC(O)(P(=O)(O)O)P(=O)(O)O)C[C@@H]1C [Example 24, Disodium {2-[(1r,3R,4S)-3,4-dimethylcyclopentyl]-1-hydroxyethane-1,1-diyl}bisphosphonate] | 93% | 
C[C@@H]1C[C@@H](CC(O)(P(=O)(O)O)P(=O)(O)O)C[C@@H]1C [Example 25, Disodium {2-[(1s,3R,4S)-3,4-dimethylcyclopentyl]-1-hydroxyethane-1,1-diyl}bisphosphonate] | 64% | 
CC1(C)CC(CC(O)(P(=O)(O)O)P(=O)(O)O)CC1(C)C [Example 26, Disodium [1-hydroxy-2-(3,3,4,4-tetramethylcyclopentyl)ethane-1,1-diyl]bisphosphonate] | 66% | 
O=P(O)(O)C(O)(CC1CCCCC1)P(=O)(O)O [Example 27, Disodium (2-cyclohexyl-1-hydroxyethane-1,1-diyl)bisphosphonate] | 82% | 
CC(C1CCCCC1)C(O)(P(=O)(O)O)P(=O)(O)O (stereo not drawn) [Example 28, Disodium (2-cyclohexyl-1-hydroxypropane-1,1-diyl)bisphosphonate] |  | inhibition in vivo at 30 mg/kg [1]: 95%
CC1(CC(O)(P(=O)(O)O)P(=O)(O)O)CCCCC1 [Example 30, Disodium [1-hydroxy-2-(1-methylcyclohexyl)ethane-1,1-diyl]bisphosphonate] | 47% | 
O=P(O)(O)C(O)(CC1CC2CCC1C2)P(=O)(O)O (stereo not drawn) [Example 31, Disodium [2-(bicyclo[2.2.1]heptan-2-yl)-1-hydroxyethane-1,1-diyl]bisphosphonate] |  | inhibition in vivo at 3 mg/kg [1]: 29%
CC1(C)CC(CC(O)(P(=O)(O)O)P(=O)(O)O)CC(C)(C)C1 [Example 35, Disodium [1-hydroxy-2-(3,3,5,5-tetramethylcyclohexyl)ethane-1,1-diyl]bisphosphonate] | 71% | 
O=P(O)(O)C(O)(CC1CCCCCC1)P(=O)(O)O [Example 44, Disodium (2-cycloheptyl-1-hydroxyethane-1,1-diyl)bisphosphonate] |  | inhibition in vivo at 10 mg/kg [1]: 95%
CC(O)(P(=O)(O)O)P(=O)(O)O [etidronate, Etidronate] |  | carotid artery intima-media thickness [2]: significantly decrease the carotid artery intima-media thicknesses; inhibition of calcification in the aorta [3]: significantly inhibit calcification in the aorta
